# Values quoted from earlier work as cited in patent US6319951A, “Use of 3-amino-4-hydroxybenzoic acid for the treatment of retroviral infections” (priority 1996, dated 2001).
# Columns and labels:
# [1] = test system: HIV; settings: reported for AZT; cited from earlier work
# [2] = test system: HIV; settings: in presence of normal serum iron; cited from earlier work
smiles,measurement,setting,value
Cc1cn([C@H]2C[C@H](N=[N+]=[N-])[C@@H](CO)O2)c(=O)[nH]c1=O [AZT],reported equivalent increase in CD4,[1],81
same,bone marrow depression and anaemia,[2],causes bone marrow depression and anaemia in presence of normal serum iron
